Assay results reported in patent EP0113998A2, “Composition and treatment for herpes simplex viral infections” (priority 1982, dated 1984).
Marks after values point to notes of the source that are not given here.

Test system: herpes simplex infections
Type: in vivo, Human
Conditions: for Side Effects: human, in vivo; for Number Days To > 90% Improvement: topical, 1% in aqueous 30% ethanol and 5% neopurcellin, genital and oral herpes patients, placebo 6.250
Description: A clinical study was performed in a. classical double blind format with numbered vials containing either 1% sodium deoxycholic acid (DOC)in an aqueous solution of 30% ethanol and 5% neopurcellin (a mixture of inert medium chain fatty acids). The placebo was exactly the same, except that it lacked the sodium deoxycholic acid.

Structure (SMILES) | Side Effects | Number Days To > 90% Improvement [days] | Efficacy by site of infection (genital / oral herpes) (description in words, patients of Example 2) | reduction of significant signs of herpes simplex infections including erythema, edema, vesiculation, ulceration and pain (summary of findings of Example 2)
C[C@H](CCC(=O)O)[C@H]1CC[C@H]2[C@@H]3CC[C@@H]4C[C@H](O)CC[C@]4(C)[C@H]3C[C@H](O)[C@]12C [DOC, sodium deoxycholic acid] | 1* | 1.608 | – | –
CC[N+](C)(CC)CCO[C@H]1CC[C@@]2(C)C(=CC[C@H]3[C@@H]4CC[C@H]([C@@H](C)O)[C@@]4(C)CC[C@@H]32)C1 [TX047, 3-beta-[2-(Diethylamino)ethoxy]-20-beta-hydroxypregn-5-ene methyl p-toluenesulphonate] | 2* | 1.774 | approx. 60% genital, 40% oral herpes. Efficacy was greatest in the treatment of oral infec-tions and less but clearly active, and use-ful for genital herpes. | markedly reduce the significant signs of herpes simplex infections
